Reference: ChEMBL document CHEMBL1136849, “Anthranilimide based glycogen phosphorylase inhibitors for the treatment of type 2 diabetes. Part 3: X-ray crystallographic characterization, core and urea optimization and in vivo efficacy” (Bioorg Med Chem Lett, 2009)

Assays:
[1] = biological target: T1, Glycogen phosphorylase, liver form (Homo sapiens, UniProt P06737); test: Inhibition of human liver glycogen phosphorylase a by coupled kinetic fluorescent intensity assay
T1 sequence (P06737 whole entry): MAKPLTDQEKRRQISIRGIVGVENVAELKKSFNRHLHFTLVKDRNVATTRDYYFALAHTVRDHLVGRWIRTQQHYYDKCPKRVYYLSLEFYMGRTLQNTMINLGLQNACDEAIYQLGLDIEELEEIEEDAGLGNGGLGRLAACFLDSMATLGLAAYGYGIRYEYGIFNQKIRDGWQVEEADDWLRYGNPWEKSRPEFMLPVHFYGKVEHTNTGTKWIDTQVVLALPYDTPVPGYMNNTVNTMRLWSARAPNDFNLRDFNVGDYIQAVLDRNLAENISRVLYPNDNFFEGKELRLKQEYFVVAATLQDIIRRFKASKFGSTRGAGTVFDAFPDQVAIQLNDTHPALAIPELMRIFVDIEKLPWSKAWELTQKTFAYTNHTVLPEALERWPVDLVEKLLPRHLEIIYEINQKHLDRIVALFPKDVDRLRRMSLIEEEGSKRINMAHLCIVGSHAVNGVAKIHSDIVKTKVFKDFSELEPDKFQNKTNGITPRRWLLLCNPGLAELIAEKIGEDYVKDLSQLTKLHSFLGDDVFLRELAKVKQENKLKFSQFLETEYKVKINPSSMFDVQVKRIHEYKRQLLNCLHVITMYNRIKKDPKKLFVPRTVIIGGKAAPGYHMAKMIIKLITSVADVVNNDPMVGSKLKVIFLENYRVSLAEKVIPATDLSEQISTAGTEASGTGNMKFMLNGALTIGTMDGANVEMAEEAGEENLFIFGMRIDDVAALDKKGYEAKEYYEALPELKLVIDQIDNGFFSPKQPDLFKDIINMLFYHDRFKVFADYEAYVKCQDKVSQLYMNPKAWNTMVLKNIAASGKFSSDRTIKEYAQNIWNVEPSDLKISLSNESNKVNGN

[2] = biological target: T1, Glycogen phosphorylase, liver form; test: Inhibition of human glycogen phosphorylase a in HepG2 cells assessed as inhibition of forskolin-stimulated glycogenolysis; format: cell-based
Rattus norvegicus [3] = test: Reduction of glucagon-induced glucose AUC in CD rat at 5 mg/kg, po preincubated for 2 hrs before glucagon challenge; format: functional; design: scale not given: the % may be the effect or the level left
Rattus norvegicus [4] = test: Reduction of glucagon-induced glucose AUC in CD rat at 2 mg/kg, po preincubated for 2 hrs before glucagon challenge; format: functional; design: scale not given: the % may be the effect or the level left
Mus musculus = test: Antidiabetic effect in ob/ob B6.V-lep[ob]/J mouse assessed as decrease in blood glucose level at 15 mg/kg, po after 3 hrs; format: functional
[5] = Clearance in rat at 1 mg/kg, iv and 5 mg/kg, po; format: ADME, organism-based; settings: in vivo
[6] = Half life in rat at 1 mg/kg, iv and 5 mg/kg, po; format: ADME, organism-based; settings: in vivo
[7] = Bioavailability in rat at 1 mg/kg, iv and 5 mg/kg, po; format: ADME, organism-based; settings: in vivo
[8] = Cmax in rat at 5 mg/kg, po; format: ADME, organism-based; design: dose 5 mg/kg, route oral; settings: in vivo

SMILES | IC50 [1] | IC50 [2] | also measured
Cc1cc(C)c(NC(=O)Nc2cc3ccccc3cc2C(=O)N[C@H](C(=O)O)[C@@H](C)OC(C)(C)C)c(C)c1 |  |  | Activity (Rattus norvegicus [3]): 25%
Cc1cc(CC2CC2)cc(C)c1NC(=O)Nc1cc(F)ccc1C(=O)N[C@H](C(=O)O)C1CCCCC1 | 13 nM | 384 nM | 
CCCc1cc(C)c(NC(=O)Nc2cc(F)ccc2C(=O)N[C@H](C(=O)O)C2CCCCC2)c(C)c1 | 19 nM | 229 nM | 
CCc1cc(C)c(NC(=O)Nc2cc(F)ccc2C(=O)N[C@H](C(=O)O)C2CCCCC2)c(C)c1 | 87 nM | 513 nM | 
Cc1cc(C)c(NC(=O)Nc2cc(F)ccc2C(=O)N[C@H](C(=O)O)C2CCCCC2)c(C)c1 | 143 nM | 1030 nM | 
Cc1cccc(C)c1NC(=O)Nc1cc(F)ccc1C(=O)N[C@H](C(=O)O)C1CCCCC1 | 1070 nM | 8260 nM | 
CCCCc1cc(C)c(NC(=O)Nc2cc(F)ccc2C(=O)N[C@H](C(=O)O)C2CCCCC2)c(C)c1 | 49 nM | 716 nM | 
Cc1cc(C)c(NC(=O)Nc2cc(-c3cccc(F)c3)ccc2C(=O)N[C@H](C(=O)O)[C@@H](C)OC(C)(C)C)c(C)c1 | 15 nM | 104 nM | Activity (Rattus norvegicus [3]): 32%; Activity (Rattus norvegicus [4]): 10%
COc1cccc(-c2ccc(C(=O)N[C@H](C(=O)O)[C@@H](C)OC(C)(C)C)c(NC(=O)Nc3c(C)cc(C)cc3C)c2)c1 | 8 nM | 109 nM | 
Cc1cc(C)c(NC(=O)Nc2cc(F)ccc2C(=O)N[C@H](C(=O)O)[C@@H](C)OC(C)(C)C)c(C)c1 | 506 nM | 1820 nM | 
Cc1cc(C)c(NC(=O)Nc2ccccc2C(=O)N[C@H](C(=O)O)[C@@H](C)OC(C)(C)C)c(C)c1 | 542 nM | 1680 nM | 

More lines, in order of falling IC50 [2], values ahead:

IC50 [1] | IC50 [2] | SMILES | also measured
28 nM | 353 nM | COc1ccccc1-c1ccc(C(=O)N[C@H](C(=O)O)[C@@H](C)OC(C)(C)C)c(NC(=O)Nc2c(C)cc(C)cc2C)c1 | 
7 nM | 181 nM | CCCc1cc(C)c(NC(=O)Nc2cc(-c3ccc(F)c(F)c3)ccc2C(=O)N[C@H](C(=O)O)[C@@H](C)OC(C)(C)C)c(C)c1 | 
13 nM | 171 nM | Cc1cc(C)c(NC(=O)Nc2cc(-c3ccc(F)c(F)c3)ccc2C(=O)N[C@H](C(=O)O)[C@@H](C)OC(C)(C)C)c(C)c1 | 
4 nM | 156 nM | CCCc1cc(C)c(NC(=O)Nc2cc(-c3cccc(F)c3)ccc2C(=O)N[C@H](C(=O)O)[C@@H](C)OC(C)(C)C)c(C)c1 | 
10 nM | 147 nM | CCCc1cc(C)c(NC(=O)Nc2cc(F)ccc2C(=O)N[C@H](C(=O)O)[C@@H](C)OC(C)(C)C)c(C)c1 | 
 | 145 nM | Cc1cc(CC2CC2)cc(C)c1NC(=O)Nc1cc(-c2cccc(F)c2)ccc1C(=O)N[C@H](C(=O)O)[C@@H](C)OC(C)(C)C | Activity (Rattus norvegicus [3]): 65%; Activity (Rattus norvegicus [4]): 62%; Activity (Mus musculus): 103 mg/dL; clearance [5]: 15 mL/min/kg; half-life [6]: 2.3 h; bioavailability [7]: 27%; Cmax [8]: 536 ng/mL
 | 135 nM | CCCc1cc(C)c(NC(=O)Nc2cc(-c3ccc(OC)cc3)ccc2C(=O)N[C@H](C(=O)O)[C@@H](C)OC(C)(C)C)c(C)c1 | 
4 nM | 133 nM | Cc1cc(CC2CC2)cc(C)c1NC(=O)Nc1cc(F)ccc1C(=O)N[C@H](C(=O)O)[C@@H](C)OC(C)(C)C | Activity (Rattus norvegicus [3]): 36%; Activity (Rattus norvegicus [4]): 22%
10 nM | 126 nM | Cc1cc(C)c(NC(=O)Nc2cc(-c3ccccc3)ccc2C(=O)N[C@H](C(=O)O)[C@@H](C)OC(C)(C)C)c(C)c1 | 
7 nM | 88 nM | Cc1cc(C)c(NC(=O)Nc2cc(-c3ccc(F)cc3)ccc2C(=O)N[C@H](C(=O)O)[C@@H](C)OC(C)(C)C)c(C)c1 | 
3 nM | 34 nM | COc1ccc(-c2ccc(C(=O)N[C@H](C(=O)O)[C@@H](C)OC(C)(C)C)c(NC(=O)Nc3c(C)cc(C)cc3C)c2)cc1 | 
